Where two headings read alike, the source gives them in different places.
Experiments:
human PR-B [1] = target: T1, human PR-B (Homo sapiens, UniProt P06401); assay: Co-transfection assay, PR agonist activity; type: cell-based; settings: for Emax: CV-1, read-out: PR Agonist CV-1 Cells Efficacy (%); for PR Agonist CV-1 Cells Efficacy (%): percent maximal response relative to reference agonist progesterone;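 for all read-outs here: CV-1 cells (African green monkey kidney) co-transfected with receptor plasmid and hormone-responsive firefly luciferase reporter, agonism read as compound-dependent rise in luciferase signal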
T1 construct: expressed in transfected cells; host or cells: CV-1 cells (African green monkey kidney fibroblasts), transient transfection
T1 sequence (P06401 1-933): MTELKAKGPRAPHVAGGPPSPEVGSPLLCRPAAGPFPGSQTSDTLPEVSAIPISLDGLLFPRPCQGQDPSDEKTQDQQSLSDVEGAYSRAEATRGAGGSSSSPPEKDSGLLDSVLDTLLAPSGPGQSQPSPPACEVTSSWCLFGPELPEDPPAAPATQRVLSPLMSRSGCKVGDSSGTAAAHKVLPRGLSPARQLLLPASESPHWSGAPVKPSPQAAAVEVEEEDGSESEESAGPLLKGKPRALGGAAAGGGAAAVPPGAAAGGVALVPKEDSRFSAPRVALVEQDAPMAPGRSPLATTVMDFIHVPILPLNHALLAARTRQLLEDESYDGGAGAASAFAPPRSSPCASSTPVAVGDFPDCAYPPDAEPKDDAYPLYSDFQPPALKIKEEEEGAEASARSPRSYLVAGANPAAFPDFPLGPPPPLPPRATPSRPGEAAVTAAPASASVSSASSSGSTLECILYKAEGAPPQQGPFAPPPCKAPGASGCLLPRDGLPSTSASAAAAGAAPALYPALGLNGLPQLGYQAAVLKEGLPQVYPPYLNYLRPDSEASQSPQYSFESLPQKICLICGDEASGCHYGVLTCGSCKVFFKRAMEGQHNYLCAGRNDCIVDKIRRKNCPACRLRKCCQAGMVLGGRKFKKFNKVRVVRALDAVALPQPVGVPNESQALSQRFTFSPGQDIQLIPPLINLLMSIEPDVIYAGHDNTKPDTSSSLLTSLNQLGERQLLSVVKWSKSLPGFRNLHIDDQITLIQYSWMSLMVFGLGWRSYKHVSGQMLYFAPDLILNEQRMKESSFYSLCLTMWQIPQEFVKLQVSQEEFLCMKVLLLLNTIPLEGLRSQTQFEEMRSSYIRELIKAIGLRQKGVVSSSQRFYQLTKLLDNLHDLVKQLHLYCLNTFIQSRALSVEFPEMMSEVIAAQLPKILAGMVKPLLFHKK

human PR-B [2] = target: T1, human PR-B; assay: Co-transfection assay, PR antagonist activity; type: cell-based; settings: for Emax: CV-1, read-out: PR Antagonist CV-1 Cells Efficacy (%);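 for all read-outs here: monkey kidney fibroblasts co-transfected with receptor expression plasmid and hormone-responsive luciferase reporter, antagonism read as reduced luciferase signal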
ER [3] = target: T2, ER (Homo sapiens, UniProt P03372); assay: Co-transfection assay, ER agonist activity; type: cell-based
T2 construct: expressed in transfected cells; host or cells: CV-1 cells, transient transfection, with MTV-ERE5-LUC reporter

ER [4] = target: T2, ER; assay: Co-transfection assay, ER antagonist activity; type: cell-based
GR = target: T3, GR (Homo sapiens, UniProt P04150); assay: Co-transfection assay, GR antagonist activity; type: cell-based
T3 construct: expressed in transfected cells; host or cells: CV-1 cells, transient transfection
T3 sequence (P04150 1-777): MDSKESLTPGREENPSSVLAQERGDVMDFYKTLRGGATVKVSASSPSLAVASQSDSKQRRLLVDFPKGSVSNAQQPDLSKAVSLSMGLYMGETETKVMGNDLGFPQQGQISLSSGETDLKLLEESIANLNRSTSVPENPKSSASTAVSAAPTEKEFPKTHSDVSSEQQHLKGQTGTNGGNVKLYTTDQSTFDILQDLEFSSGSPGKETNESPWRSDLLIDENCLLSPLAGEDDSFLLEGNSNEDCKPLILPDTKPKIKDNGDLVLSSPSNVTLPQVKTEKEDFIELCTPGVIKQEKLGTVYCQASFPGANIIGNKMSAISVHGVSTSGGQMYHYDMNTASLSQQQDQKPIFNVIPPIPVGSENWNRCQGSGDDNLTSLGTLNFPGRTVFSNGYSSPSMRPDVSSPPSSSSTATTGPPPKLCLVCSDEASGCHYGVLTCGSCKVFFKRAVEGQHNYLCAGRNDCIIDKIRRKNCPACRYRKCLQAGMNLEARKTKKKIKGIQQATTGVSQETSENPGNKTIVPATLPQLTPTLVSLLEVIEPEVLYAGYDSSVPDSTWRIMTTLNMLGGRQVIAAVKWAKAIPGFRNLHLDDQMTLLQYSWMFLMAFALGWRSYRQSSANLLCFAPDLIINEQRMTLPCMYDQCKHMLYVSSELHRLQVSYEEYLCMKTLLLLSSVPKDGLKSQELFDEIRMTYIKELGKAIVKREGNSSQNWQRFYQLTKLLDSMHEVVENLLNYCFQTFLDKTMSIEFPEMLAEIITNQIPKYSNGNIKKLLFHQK

MR = target: T4, MR (Homo sapiens, UniProt P08235); assay: Co-transfection assay, MR antagonist activity; type: cell-based
T4 construct: expressed in transfected cells; host or cells: CV-1 cells, transient transfection
T4 sequence (P08235 1-984): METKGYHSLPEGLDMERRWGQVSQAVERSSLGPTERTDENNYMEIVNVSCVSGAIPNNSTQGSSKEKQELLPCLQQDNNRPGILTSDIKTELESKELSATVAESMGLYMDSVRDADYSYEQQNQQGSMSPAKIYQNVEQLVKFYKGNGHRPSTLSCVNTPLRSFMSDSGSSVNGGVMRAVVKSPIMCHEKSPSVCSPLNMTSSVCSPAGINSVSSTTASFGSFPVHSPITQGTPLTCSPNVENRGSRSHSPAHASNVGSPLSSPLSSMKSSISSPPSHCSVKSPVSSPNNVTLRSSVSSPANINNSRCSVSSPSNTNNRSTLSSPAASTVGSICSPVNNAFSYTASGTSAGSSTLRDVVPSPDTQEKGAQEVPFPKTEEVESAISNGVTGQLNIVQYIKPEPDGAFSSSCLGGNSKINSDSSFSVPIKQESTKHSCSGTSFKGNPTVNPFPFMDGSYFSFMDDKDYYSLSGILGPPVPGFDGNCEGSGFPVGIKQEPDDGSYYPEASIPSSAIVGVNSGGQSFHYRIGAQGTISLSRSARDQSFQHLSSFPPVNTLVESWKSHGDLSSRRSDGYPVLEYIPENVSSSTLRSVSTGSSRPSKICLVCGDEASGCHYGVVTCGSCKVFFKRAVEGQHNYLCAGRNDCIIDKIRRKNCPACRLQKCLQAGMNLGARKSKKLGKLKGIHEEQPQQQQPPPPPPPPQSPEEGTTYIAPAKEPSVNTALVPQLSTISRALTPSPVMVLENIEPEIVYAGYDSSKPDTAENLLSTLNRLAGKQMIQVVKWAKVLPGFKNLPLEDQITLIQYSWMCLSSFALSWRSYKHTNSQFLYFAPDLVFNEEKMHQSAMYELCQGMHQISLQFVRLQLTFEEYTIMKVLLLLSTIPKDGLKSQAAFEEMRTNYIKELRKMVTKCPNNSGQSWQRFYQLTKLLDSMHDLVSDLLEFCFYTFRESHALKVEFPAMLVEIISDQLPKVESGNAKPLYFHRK

PR [5] = assay: Uterine wet weight assay (PR agonist effectiveness); type: in vivo, Sprague-Dawely rats
From the text: J. Obstet. […] R.I. Dorfman, Academic Press, New York, New York, pp101-130 (1969), the disclosures of which are herein incorporated by reference. Four to five week old, ovariectomized, Sprague-Dawely rats (Harlan-Sprague-Dawely, Indianapolis, IN) were obtained 1 week after surgery and allowed to acclimate for an additional week after shipment.

AR [6] = target: T5, AR (Homo sapiens, UniProt P10275); assay: Co-transfection assay, AR agonist activity; type: cell-based; settings: CV-1 cells
T5 construct: expressed in transfected cells; host or cells: CV-1 cells, transient transfection

AR [7] = target: T5, AR; assay: Co-transfection assay, AR antagonist activity; type: cell-based
human AR = assay: AR whole cell binding assay (COS-1 cells); settings: whole COS-1 cells, competition with 1 nM 3H-DHT, three hours at 37°C
[8] = target: T6, human progesterone receptor A form (PR-A) (Homo sapiens, UniProt P06401); assay: PR binding assay
T6 sequence (P06401 1-933): T1 sequence (P06401 1-933)

PR [9] = assay: Implantation assay (antiprogestin activity); type: in vivo, mice (ICR strain)
Protocol: Mating was assumed to have taken place at 02.00 h, time 0.
Compound 150 was dissolved in sesame oil (50 mg/mL) and kept at room temperature before use. […] Control animals received an equivuivalent volume of the control vehicle, sesame oil, alone.
The animals were sacrificed, and autopsies were carried out at Day 8 of pregnancy, and numbers of implantation sites counted and recorded, and are shown in Table 7 below. Each group consisted of between 5 and 7 animals.

[10] = CV-1 cells, agonist potency = EC50, read-out: PR Agonist CV-1 Cells Potency
[11] = competition with [3H] progesterone, baculovirus extract, 4°C, 16 hours, read-out: PR Binding Ki

T2 sequence (P03372 whole entry): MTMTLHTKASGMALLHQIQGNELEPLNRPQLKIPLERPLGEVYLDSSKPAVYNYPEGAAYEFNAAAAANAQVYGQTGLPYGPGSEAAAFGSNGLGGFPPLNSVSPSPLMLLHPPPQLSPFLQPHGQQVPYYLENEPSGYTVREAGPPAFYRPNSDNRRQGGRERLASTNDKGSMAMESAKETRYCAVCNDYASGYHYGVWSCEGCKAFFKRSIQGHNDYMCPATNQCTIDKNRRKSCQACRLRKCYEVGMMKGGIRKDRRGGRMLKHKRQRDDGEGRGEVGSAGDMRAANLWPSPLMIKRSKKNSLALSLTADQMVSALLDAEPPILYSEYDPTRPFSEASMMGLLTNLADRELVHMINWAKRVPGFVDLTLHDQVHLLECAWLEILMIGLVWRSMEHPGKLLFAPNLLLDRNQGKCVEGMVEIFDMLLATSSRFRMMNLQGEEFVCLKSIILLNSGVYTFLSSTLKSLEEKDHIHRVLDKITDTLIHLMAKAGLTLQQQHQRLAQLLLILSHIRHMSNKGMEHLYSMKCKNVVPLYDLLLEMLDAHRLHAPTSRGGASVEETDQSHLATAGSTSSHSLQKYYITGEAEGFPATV
T5 sequence (P10275 whole entry): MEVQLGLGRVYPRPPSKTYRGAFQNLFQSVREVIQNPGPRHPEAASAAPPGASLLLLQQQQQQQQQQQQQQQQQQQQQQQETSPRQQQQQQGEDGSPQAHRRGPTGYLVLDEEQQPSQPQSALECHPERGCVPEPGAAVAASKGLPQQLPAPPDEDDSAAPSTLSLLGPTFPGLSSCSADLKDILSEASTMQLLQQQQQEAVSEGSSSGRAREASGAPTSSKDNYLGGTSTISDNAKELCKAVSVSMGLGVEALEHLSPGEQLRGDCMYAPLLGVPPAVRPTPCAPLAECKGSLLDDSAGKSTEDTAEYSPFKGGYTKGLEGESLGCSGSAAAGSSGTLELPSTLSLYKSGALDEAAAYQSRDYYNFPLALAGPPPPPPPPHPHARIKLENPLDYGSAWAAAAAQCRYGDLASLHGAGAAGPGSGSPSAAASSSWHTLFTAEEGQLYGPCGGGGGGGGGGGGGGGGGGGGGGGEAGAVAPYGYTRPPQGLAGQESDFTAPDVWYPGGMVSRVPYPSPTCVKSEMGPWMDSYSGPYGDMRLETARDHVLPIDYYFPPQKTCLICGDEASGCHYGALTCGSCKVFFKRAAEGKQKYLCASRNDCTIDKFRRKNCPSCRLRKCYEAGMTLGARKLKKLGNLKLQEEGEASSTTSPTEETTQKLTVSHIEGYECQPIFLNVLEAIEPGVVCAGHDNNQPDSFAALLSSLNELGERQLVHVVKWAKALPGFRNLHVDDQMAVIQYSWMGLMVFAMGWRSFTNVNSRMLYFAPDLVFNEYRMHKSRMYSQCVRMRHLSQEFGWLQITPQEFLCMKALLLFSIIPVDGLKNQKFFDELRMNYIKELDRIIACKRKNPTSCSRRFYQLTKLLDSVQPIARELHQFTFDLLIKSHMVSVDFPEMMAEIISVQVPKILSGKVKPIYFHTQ

CC1=CC(C)(C)Nc2ccc3c(c21)C(c1ccc(Cl)cc1)Oc1ccccc1-3 (racemic) [Compound 163, (R/S)-5-(4-Chlorophenyl)-1,2-dihydro-2,2,4-trimethyl-5H-chromeno[3,4-f]quinoline]
Emax (human PR-B [1]): 77%
Emax (human PR-B [2]): 45%
EC50 (ER [3]): > 10000 nM
IC50 (ER [4]): 2150 nM
IC50 (GR): 1330 nM
IC50 (MR): 1450 nM
Mean Uterine Wet Weight (PR [5]; 3.0 mg/rat oral once a day for three days in the presence of estrone (10 µg/day, subcutaneous)): 125 mg
effect on mean uterine wet weight (PR [5]; co-administered with estrone, dosage of 3 mg/rat): decreased by approximately half

8-(4-Chlorobenzoyl)-5-trifluoromethyl-7-pyridono[5,6-e]indoline [Compound 420]
EC50 (AR [6]; agonist potency = EC50): 2100 nM
AR Agonist CV-1 Cells Efficacy (%) (AR [6]; relative to reference agonist DHT): 40%
IC50 (AR [7]; CV-1 cells, antagonist potency = IC50, DHT at its EC50, read-out: AR Antagonist CV-1 Cells Potency): 32 nM
AR Antagonist CV-1 Cells Efficacy (%) (AR [7]; CV-1 cells, percent maximal inhibition, DHT at its EC50): 80%
Ki (human AR): 346 nM

C[C@H]1C(=O)C(C)(C)Nc2ccc3c(c21)O[C@H](c1ccccc1)c1ccccc1-3 (relative stereo) [Compound 391, (R/S-4l,6l)-1,2,3,4-Tetrahydro-2,2,4-trimethyl-6-phenyl-5H-isochromeno[3,4-f]-3-quinolinone]
EC50 (human PR-B [1]): > 10000 nM
Emax (human PR-B [1]): < 20%
IC50 (human PR-B [2]): 120 nM
Emax (human PR-B [2]): 65%
Ki [8]: 187 nM

8-Bromo-1,2-dihydro-2,2,4-trimethylindeno[1,2-g]quinoline [Compound 117]
EC50 (human PR-B [1]; [10]): > 10000 nM
PR Agonist CV-1 Cells Efficacy (%) (human PR-B [1]; CV-1 cells): na (na = not active (i.e. efficacy of <20 and potency of >10,000))
Ki [8, 11]: > 10000 nM

CC1=CC(C)(C)Nc2ccc(-c3cccc(F)c3F)cc21 [Compound 152, 6-(2,3-Difluorophenyl)-1,2-dihydro-2,2,4-trimethylquinoline]
EC50 (human PR-B [1]): > 10000 nM
Emax (human PR-B [1]): < 20%
IC50 (human PR-B [2]): 130 nM
Emax (human PR-B [2]): 82%
Ki [8]: 53 nM

CC1=CC(C)(C)Nc2ccc(-c3cccc(C#N)c3)cc21 [Compound 150, 6-(3-Cyanophenyl)-1,2-dihydro-2,2,4-trimethylquinoline]
Emax (human PR-B [1]): 24%
Emax (human PR-B [2]): 91%
IC50 (AR [7]): 140 nM
IC50 (ER [4]): > 10000 nM
IC50 (GR): 2700 nM
IC50 (MR): 1900 nM
Percent Pregnancy Rate (PR [9]; 5.0 mg/day oral, days 2 to 4 of pregnancy, mice): 0
effect on pregnancy rate with simultaneous PR agonist (PR [9]; simultaneous injection of R5020 (promegestone) at 1.0 mg per day): reversed to the control level

(R/S-4l,5l)-3-Benzenzylidene-5-(4-chlorophenyl)-1,2,3,4-tetrahydro-2,2,4-trimethyl-5H-chromeno[3,4-f]quinoline [Compound 401]
EC50 (human PR-B [1]; [10]): 600 nM
PR Agonist CV-1 Cells Efficacy (%) (human PR-B [1]; CV-1 cells): 43%
IC50 (human PR-B [2]; CV-1 cells, antagonist potency = IC50, progesterone at its EC50, read-out: PR Antagonist CV-1 Cells Potency): > 10000 nM
PR Antagonist CV-1 Cells Efficacy (%) (human PR-B [2]; CV-1 cells, percent maximal inhibition, progesterone at its EC50): na (na = not active (i.e. efficacy of <20 and potency of >10,000))
Ki [8, 11]: 150 nM
